Like-named read-outs stand apart in the source and are kept apart here.
Key:
Assay type in all cases: cell-based
SF-539 = experiment: NCI single dose screening (10 µM); details: Homo sapiens
MDA-MB-231/ATCC = experiment: NCI single dose screening (10 µM); details: Homo sapiens
HCT-15 = experiment: NCI single dose screening (10 µM); details: Homo sapiens
NCI-H460 = experiment: NCI single dose screening (10 µM); details: Homo sapiens
MDA-MB-435 = experiment: NCI single dose screening (10 µM); details: Homo sapiens
NCI-H522 = experiment: NCI single dose screening (10 µM); details: Homo sapiens
SK-MEL-2 = experiment: NCI single dose screening (10 µM); details: Homo sapiens
K-562 = experiment: NCI single dose screening (10 µM); details: Homo sapiens
PC-3 = experiment: NCI single dose screening (10 µM); details: Homo sapiens
MDA-MB-468 = experiment: NCI single dose screening (10 µM); details: Homo sapiens
A549/ATCC = experiment: NCI single dose screening (10 µM); details: Homo sapiens
OVCAR-4 = experiment: NCI single dose screening (10 µM); details: Homo sapiens
NCI/ADR-RES = experiment: NCI single dose screening (10 µM); details: Homo sapiens, read-out: GI% (cell growth inhibition percentage)
OVCAR-3 = experiment: NCI single dose screening (10 µM); details: Homo sapiens
LOX IMVI = experiment: NCI single dose screening (10 µM); details: Homo sapiens, read-out: GI% (cell growth inhibition percentage)
HOP-92 = experiment: NCI single dose screening (10 µM); details: Homo sapiens
COLO 205 = experiment: NCI single dose screening (10 µM); details: Homo sapiens
SF-268 = experiment: NCI single dose screening (10 µM); details: Homo sapiens
KM12 = experiment: NCI single dose screening (10 µM); details: Homo sapiens
HOP-62 = experiment: NCI single dose screening (10 µM); details: Homo sapiens
HCT-116 = experiment: NCI single dose screening (10 µM); details: Homo sapiens
[1] = system: NCI-55 cancer cell line panel; experiment: NCI single dose screening (10 µM), whole panel; details: Homo sapiens, read-out: Mean inhibition, % (mean GI%)
[2] = SF-539, CNS cancer, single dose 10^−5 M, read-out: GI% (cell growth inhibition percentage)
[3] = MDA-MB-231/ATCC, Breast cancer, single dose 10^−5 M, read-out: GI% (cell growth inhibition percentage)
[4] = HCT-15, Colon cancer, single dose 10^−5 M, read-out: GI% (cell growth inhibition percentage)
[5] = NCI-H460, Non-small cell lung cancer, single dose 10^−5 M, read-out: GI% (cell growth inhibition percentage)
[6] = MDA-MB-435, Melanoma, single dose 10^−5 M, read-out: GI% (cell growth inhibition percentage)
[7] = NCI-H522, Non-small cell lung cancer, single dose 10^−5 M, read-out: GI% (cell growth inhibition percentage)
[8] = SK-MEL-2, Melanoma, single dose 10^−5 M, read-out: GI% (cell growth inhibition percentage)
[9] = K562, K-562, Leukaemia, single dose 10^−5 M, read-out: GI% (cell growth inhibition percentage)
[10] = PC-3, Prostate cancer, single dose 10^−5 M, read-out: GI% (cell growth inhibition percentage)
[11] = MDA-MB-468, Breast cancer, single dose 10^−5 M, read-out: GI% (cell growth inhibition percentage)
[12] = A549/ATCC, Non-small cell lung cancer, single dose 10^−5 M, read-out: GI% (cell growth inhibition percentage)
[13] = OVCAR-4, Ovarian cancer, single dose 10^−5 M, read-out: GI% (cell growth inhibition percentage)
[14] = Ovarian cancer, single dose 10^−5 M
[15] = OVCAR-3, Ovarian cancer, single dose 10^−5 M, read-out: GI% (cell growth inhibition percentage)
[16] = HOP-92, Non-small cell lung cancer, single dose 10^−5 M, read-out: GI% (cell growth inhibition percentage)
[17] = COLO 205, Colon cancer, single dose 10^−5 M, read-out: GI% (cell growth inhibition percentage)
[18] = SF-268, CNS cancer, single dose 10^−5 M, read-out: GI% (cell growth inhibition percentage)
[19] = KM12, Colon cancer, single dose 10^−5 M, read-out: GI% (cell growth inhibition percentage)
[20] = HOP-62, Non-small cell lung cancer, single dose 10^−5 M, read-out: GI% (cell growth inhibition percentage)
[21] = HCT-116, Colon cancer, single dose 10^−5 M, read-out: GI% (cell growth inhibition percentage)
[22] = mean over NCI-55 cell lines, single dose 10^−5 M
[23] = SF-539, read-out: GI% (cell growth inhibition percentage)
[24] = MDA-MB-231, read-out: GI% (cell growth inhibition percentage)
[25] = HCT-15, read-out: GI% (cell growth inhibition percentage)
[26] = NCI-H460, read-out: GI% (cell growth inhibition percentage)
[27] = MDA-MB-435, read-out: GI% (cell growth inhibition percentage)
[28] = NCI-H522, read-out: GI% (cell growth inhibition percentage)
[29] = SK-MEL-2, read-out: GI% (cell growth inhibition percentage)
[30] = K562, read-out: GI% (cell growth inhibition percentage)
[31] = PC-3, read-out: GI% (cell growth inhibition percentage)
[32] = MDA-MB-468, read-out: GI% (cell growth inhibition percentage)
[33] = A549, read-out: GI% (cell growth inhibition percentage)
[34] = OVCAR-4, read-out: GI% (cell growth inhibition percentage)
[35] = OVCAR-3, read-out: GI% (cell growth inhibition percentage)
[36] = HOP-92, read-out: GI% (cell growth inhibition percentage)
[37] = COLO 205, read-out: GI% (cell growth inhibition percentage)
[38] = SF-268, read-out: GI% (cell growth inhibition percentage)
[39] = KM12, read-out: GI% (cell growth inhibition percentage)
[40] = HOP-62, read-out: GI% (cell growth inhibition percentage)
[41] = HCT-116, read-out: GI% (cell growth inhibition percentage)

`Cc1c(C(=O)N/N=C2\C(=O)Nc3ccc(Br)cc32)oc2ccccc12` [Compound 5c] was tested, and the inhibition at 10 µM (SF-539; [2]) was 57.9%, the inhibition at 10 µM (MDA-MB-231/ATCC; [3]) was 29.9% and the inhibition at 10 µM (HCT-15; [4]) was under 10%. The inhibition at 10 µM (NCI-H460; [5]) was 42.6%, the inhibition at 10 µM (MDA-MB-435; [6]) was under 10% and the inhibition at 10 µM (NCI-H522; [7]) was 10.3%. For the same compound, the inhibition at 10 µM (SK-MEL-2; [8]) was under 10%, the inhibition at 10 µM (K-562; [9]) was 18% and the inhibition at 10 µM (PC-3; [10]) was 13.8%. For the same compound, the inhibition at 10 µM (MDA-MB-468; [11]) was under 10%, the inhibition at 10 µM (A549/ATCC; [12]) was 27.9% and the inhibition at 10 µM (OVCAR-4; [13]) was 31%. For the same compound, the inhibition at 10 µM (NCI/ADR-RES; [14]) was 29.3%, the inhibition at 10 µM (OVCAR-3; [15]) was under 10% and the inhibition at 10 µM (LOX IMVI; Melanoma, single dose 10^−5 M) was 33.8%. For the same compound, the inhibition at 10 µM (HOP-92; [16]) was 26.5%, the inhibition at 10 µM (COLO 205; [17]) was under 10% and the inhibition at 10 µM (SF-268; [18]) was 11.7%. The inhibition at 10 µM (KM12; [19]) was 20.5%, the inhibition at 10 µM (HOP-62; [20]) was 41.4% and the inhibition at 10 µM (HCT-116; [21]) was 32%. For the same compound, the inhibition at 10 µM [1, 22] was 22%.

For `Cc1c(C(=O)N/N=C2\C(=O)N(C)c3ccccc32)oc2ccccc12` [Compound 7a], the inhibition at 10 µM (SF-539; [2]) was under 10%, the inhibition at 10 µM (MDA-MB-231/ATCC; [3]) was under 10% and the inhibition at 10 µM (HCT-15; [4]) was under 10%. For the same compound, the inhibition at 10 µM (NCI-H460; [5]) was under 10%, the inhibition at 10 µM (MDA-MB-435; [6]) was under 10% and the inhibition at 10 µM (NCI-H522; [7]) was under 10%. For the same compound, the inhibition at 10 µM (SK-MEL-2; [8]) was under 10%, the inhibition at 10 µM (K-562; [9]) was under 10% and the inhibition at 10 µM (PC-3; [10]) was under 10%. For the same compound, the inhibition at 10 µM (MDA-MB-468; [11]) was under 10%, the inhibition at 10 µM (A549/ATCC; [12]) was under 10% and the inhibition at 10 µM (OVCAR-4; [13]) was under 10%. The inhibition at 10 µM (NCI/ADR-RES; [14]) was under 10%, the inhibition at 10 µM (OVCAR-3; [15]) was under 10% and the inhibition at 10 µM (LOX IMVI; Melanoma, single dose 10^−5 M) was under 10%. The inhibition at 10 µM (HOP-92; [16]) was under 10%, the inhibition at 10 µM (COLO 205; [17]) was under 10% and the inhibition at 10 µM (SF-268; [18]) was under 10%. The inhibition at 10 µM (KM12; [19]) was under 10%, the inhibition at 10 µM (HOP-62; [20]) was under 10% and the inhibition at 10 µM (HCT-116; [21]) was under 10%. For the same compound, the inhibition at 10 µM [1, 22] was 0.09%.

For `Cc1c(C(=O)N/N=C2\C(=O)N(Cc3ccccc3)c3ccccc32)oc2ccccc12` [Compound 7d], the inhibition at 10 µM (SF-539; [23]) was under 10%, the inhibition at 10 µM (MDA-MB-231/ATCC; [24]) was 18.3% and the inhibition at 10 µM (HCT-15; [25]) was under 10%. It also gave an inhibition at 10 µM (NCI-H460; [26]) of 25%, an inhibition at 10 µM (MDA-MB-435; [27]) of under 10% and an inhibition at 10 µM (NCI-H522; [28]) of 21.7%. The inhibition at 10 µM (SK-MEL-2; [29]) was under 10%, the inhibition at 10 µM (K-562; [30]) was under 10% and the inhibition at 10 µM (PC-3; [31]) was 15.7%. For the same compound, the inhibition at 10 µM (MDA-MB-468; [32]) was under 10%, the inhibition at 10 µM (A549/ATCC; [33]) was under 10% and the inhibition at 10 µM (OVCAR-4; [34]) was under 10%. The inhibition at 10 µM (NCI/ADR-RES) was 10.2%, the inhibition at 10 µM (OVCAR-3; [35]) was under 10% and the inhibition at 10 µM (LOX IMVI) was 13.8%. The inhibition at 10 µM (HOP-92; [36]) was 12.6%, the inhibition at 10 µM (COLO 205; [37]) was under 10% and the inhibition at 10 µM (SF-268; [38]) was under 10%. The inhibition at 10 µM (KM12; [39]) was under 10%, the inhibition at 10 µM (HOP-62; [40]) was 20.8% and the inhibition at 10 µM (HCT-116; [41]) was under 10%. The inhibition at 10 µM [1] was 6.01%.

For `CCCN1C(=O)/C(=N\NC(=O)c2oc3ccccc3c2C)c2ccccc21` [Compound 7b], the inhibition at 10 µM (SF-539; [23]) was under 10%, the inhibition at 10 µM (MDA-MB-231/ATCC; [24]) was 29% and the inhibition at 10 µM (HCT-15; [25]) was under 10%. The inhibition at 10 µM (NCI-H460; [26]) was 15.6%, the inhibition at 10 µM (MDA-MB-435; [27]) was under 10% and the inhibition at 10 µM (NCI-H522; [28]) was 10.3%. For the same compound, the inhibition at 10 µM (SK-MEL-2; [29]) was under 10%, the inhibition at 10 µM (K-562; [30]) was 11.4% and the inhibition at 10 µM (PC-3; [31]) was 10.8%. It also gave an inhibition at 10 µM (MDA-MB-468; [32]) of under 10%, an inhibition at 10 µM (A549/ATCC; [33]) of under 10% and an inhibition at 10 µM (OVCAR-4; [34]) of under 10%. It also gave an inhibition at 10 µM (NCI/ADR-RES) of 10.3%, an inhibition at 10 µM (OVCAR-3; [35]) of under 10% and an inhibition at 10 µM (LOX IMVI) of under 10%. The inhibition at 10 µM (HOP-92; [36]) was under 10%, the inhibition at 10 µM (COLO 205; [37]) was under 10% and the inhibition at 10 µM (SF-268; [38]) was under 10%. The inhibition at 10 µM (KM12; [39]) was under 10%, the inhibition at 10 µM (HOP-62; [40]) was 18.1% and the inhibition at 10 µM (HCT-116; [41]) was under 10%. It also gave an inhibition at 10 µM [1] of 5.18%.

From article PMC8245078, “Development of novel benzofuran-isatin conjugates as potential antiproliferative agents with apoptosis inducing mechanism in Colon cancer” (Journal of Enzyme Inhibition and Medicinal Chemistry, 2021)
